{"source": "paper PMC6016400", "about": "(Journal of medicinal chemistry, 2017)", "key": {"hPTHR1": {"molecular_target": "T1, hPTHR1 (Homo sapiens, UniProt Q03431)", "T1 sequence (Q03431 27-593)": "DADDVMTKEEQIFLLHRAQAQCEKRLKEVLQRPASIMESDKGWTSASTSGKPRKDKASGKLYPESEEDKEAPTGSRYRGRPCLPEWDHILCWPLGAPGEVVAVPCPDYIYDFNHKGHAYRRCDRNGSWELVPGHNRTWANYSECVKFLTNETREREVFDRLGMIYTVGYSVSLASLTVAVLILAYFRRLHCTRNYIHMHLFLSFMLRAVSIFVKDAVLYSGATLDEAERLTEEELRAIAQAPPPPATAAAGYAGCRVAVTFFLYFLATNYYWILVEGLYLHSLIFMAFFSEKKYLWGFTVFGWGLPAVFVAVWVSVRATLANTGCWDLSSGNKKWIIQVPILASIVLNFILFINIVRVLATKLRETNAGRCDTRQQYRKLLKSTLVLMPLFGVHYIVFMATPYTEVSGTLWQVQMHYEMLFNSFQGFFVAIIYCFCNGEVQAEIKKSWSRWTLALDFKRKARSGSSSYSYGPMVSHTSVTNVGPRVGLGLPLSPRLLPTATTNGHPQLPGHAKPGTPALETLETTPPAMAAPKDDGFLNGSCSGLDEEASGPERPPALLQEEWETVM", "experiment": "cAMP induction", "format": "cell-based", "details": "Table 1; ratio of cAMP EC50 values, hPTHR1, GP2.3 cells"}, "CD1 mice": {"system": "CD1 mice", "details": "subcutaneous injection; cited from earlier work"}, "[1]": {"system": "R0 conformation of the human PTHR1", "details": "cited from earlier work"}}, "data": [{"substance": "M-PTH(1-34) [Peptide 27]", "values": [{"measurement": "Derivative EC50/PTH(1-34) EC50", "setting": "hPTHR1", "value": 4.2}, {"measurement": "duration of calcemic effect in mice, earlier studies", "setting": "CD1 mice", "value": "long-lasting calcemic effect"}, {"measurement": "binding to the R0 state of PTHR1, rank in words, earlier studies", "setting": "[1]", "value": "binds even more tightly than does 1"}]}]}
